From patent US6358885B1, “Substituted phenylheterocyclic herbicides” (Mississippi State University, priority 1992, dated 2002)

What was measured:
giant foxtail = assay: Test B preemergence/postemergence greenhouse plant response rating 0 to 10; assay type: in vivo, Setaria faberii; details: 0 to 10 scale
Outline: (§1)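 Planted seeds are treated preemergence with compound dissolved in a non-phytotoxic solvent, while postemergence applications go onto plants of two to eighteen cm. Plants stay in the greenhouse twelve to sixteen days and are then rated visually relative to controls.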

barnyardgrass = assay: as above; assay type: in vivo, Echinochloa crus-galli; details: for Plant response rating, Barnyardgrass: 0 to 10 scale
Outline: as §1

dallisgrass = assay: Test G preemergence/postemergence greenhouse plant response rating 0 to 100; assay type: in vivo, Paspalum dilatatum; details: 0 to 100 scale
Description: (§2) Seeds, rhizomes, or plant parts of alfalfa (Medicago ativa), annual bluegrass (Poa annua), bermudagrass (Cynodon dactylon), broadleaf signalgrass (Brachiaria plantaginea), common purslane (Portulaca oleracea), common ragweed (Ambrosia elatior), […] (Paspalum dilatatum), goosegrass (Eleusine indica), guineagrass (Panicum maximum), […] exaltata), johnsongrass (Sorghum halepense), large crabgrass (Digitaria sanguinalis), peanut (Arachis hypoagaea), pitted morningglory (Ipomoea lacunosa), purple nutsedge (Cyperus rotundus), sandbur (Cenchrus echinatus), smooth crabgrass (Digitaria ischaemum) and yellow nutsedge (Cyperus esculentus) were planted into greenhouse pots containing greenhouse planting medium. Each pot contained only one plant species. The test compound was dissolved in a non-phytotoxic solvent and applied preemergence and/or postemergence to the plants. Preemergence applications were made within one day of planting the seeds or plant parts. Postemergence applications were applied when the plants were in the two to four leaf stage (three to twenty cm). Test chemicals were dissolved in a non-phytotoxic solvent and applied preemergence and postemergence to the plants. Untreated control plants and treated plants were placed in the greenhouse and visually evaluated for injury at 13 to 21 days after herbicide application. […] A dash (-) response indicates no test result.

purple nutsedge [1] = assay: as above; assay type: in vivo, Cyperus rotundus; details: Rate 125 g/ha, 0 to 100 scale
Description: as §2

purple nutsedge [2] = assay: Test B preemergence/postemergence greenhouse plant response rating 0 to 10; assay type: in vivo, Cyperus rotundus; details: 0 to 10 scale
Outline: as §1

rape = assay: as above; assay type: in vivo, Brassica napus; details: 0 to 10 scale
Outline: as §1

crabgrass = assay: as above; assay type: in vivo, Digitaria spp.; details: for Plant response rating, Crabgrass: 0 to 10 scale
Outline: as §1

blackgrass = assay: as above; assay type: in vivo, Alopecurus myosuroides; details: for Plant response rating, Blackgrass: 0 to 10 scale
Outline: as §1

Compound	Plant response rating, Giant foxtail (giant foxtail; POSTEMERGENCE, Rate 50 g/ha)	Plant response rating, Giant foxtail (giant foxtail; POSTEMERGENCE, Rate 200 g/ha)	Plant response rating, Giant foxtail (giant foxtail; PREEMERGENCE, Rate 50 g/ha)	Plant response rating, Giant foxtail (giant foxtail; Rate 200 g/ha, PREEMERGENCE)	Plant response rating (0 to 10 scale), Barnyardgrass (barnyardgrass; POSTEMERGENCE, Rate 50 g/ha)	Plant response rating, Barnyardgrass (barnyardgrass; POSTEMERGENCE, Rate 200 g/ha)	Plant response rating, Barnyardgrass (barnyardgrass; PREEMERGENCE, Rate 50 g/ha)	Plant response rating, Barnyardgrass (barnyardgrass; Rate 200 g/ha, PREEMERGENCE)	Plant response rating, Dallisgrass (dallisgrass; POSTEMERGENCE, Rate 125 g/ha)	Plant response rating, Dallisgrass (dallisgrass; POSTEMERGENCE, Rate 250 g/ha)	Plant response rating, Dallisgrass (dallisgrass; PREEMERGENCE, Rate 125 g/ha)	Plant response rating, Dallisgrass (dallisgrass; PREEMERGENCE, Rate 250 g/ha)	Plant response rating, Purple Nutsedge (purple nutsedge [1]; POSTEMERGENCE)	Plant response rating, Purple Nutsedge (purple nutsedge [1]; PREEMERGENCE)	Plant response rating, Nutsedge (purple nutsedge [2]; POSTEMERGENCE, Rate 50 g/ha)	Plant response rating, Nutsedge (purple nutsedge [2]; POSTEMERGENCE, Rate 200 g/ha)	Plant response rating, Nutsedge (purple nutsedge [2]; PREEMERGENCE, Rate 50 g/ha)	Plant response rating, Nutsedge (purple nutsedge [2]; Rate 200 g/ha, PREEMERGENCE)	Plant response rating, Rape (rape; POSTEMERGENCE, Rate 50 g/ha)	Plant response rating, Rape (rape; POSTEMERGENCE, Rate 200 g/ha)	further results
Fc1cc(Cl)c(OC2CCCC2)cc1-c1nn2c(c1Cl)CCCC2 [Compound 24]	4	5	3	8	4	6	1	4	0	0	20	30	0	0	3	4	0	0	5	7	Plant response rating, Rape (rape; PREEMERGENCE, Rate 50 g/ha): 2; Plant response rating, Rape (rape; Rate 200 g/ha, PREEMERGENCE): 8; Plant response rating (0 to 10 scale), Crabgrass (crabgrass; POSTEMERGENCE, Rate 50 g/ha): 5; Plant response rating, Crabgrass (crabgrass; POSTEMERGENCE, Rate 200 g/ha): 5; Plant response rating, Crabgrass (crabgrass; PREEMERGENCE, Rate 50 g/ha): 0; Plant response rating, Crabgrass (crabgrass; Rate 200 g/ha, PREEMERGENCE): 7; Plant response rating (0 to 10 scale), Blackgrass (blackgrass; POSTEMERGENCE, Rate 50 g/ha): 2; Plant response rating, Blackgrass (blackgrass; POSTEMERGENCE, Rate 200 g/ha): 6; Plant response rating, Blackgrass (blackgrass; PREEMERGENCE, Rate 50 g/ha): 2; Plant response rating, Blackgrass (blackgrass; Rate 200 g/ha, PREEMERGENCE): 8
CCCOc1cc(-c2nn3c(c2Cl)CCCC3)c(F)cc1Cl [Compound 23]	5	7	6	9	7	9	4	6	0	0	0	20	0	0	2	3	0	0	6	10	Plant response rating, Rape (rape; PREEMERGENCE, Rate 50 g/ha): 3; Plant response rating, Rape (rape; Rate 200 g/ha, PREEMERGENCE): 6; Plant response rating (0 to 10 scale), Crabgrass (crabgrass; POSTEMERGENCE, Rate 50 g/ha): 2; Plant response rating, Crabgrass (crabgrass; POSTEMERGENCE, Rate 200 g/ha): 6; Plant response rating, Crabgrass (crabgrass; PREEMERGENCE, Rate 50 g/ha): 2; Plant response rating, Crabgrass (crabgrass; Rate 200 g/ha, PREEMERGENCE): 9; Plant response rating (0 to 10 scale), Blackgrass (blackgrass; POSTEMERGENCE, Rate 50 g/ha): 6; Plant response rating, Blackgrass (blackgrass; POSTEMERGENCE, Rate 200 g/ha): 6; Plant response rating, Blackgrass (blackgrass; PREEMERGENCE, Rate 50 g/ha): 6; Plant response rating, Blackgrass (blackgrass; Rate 200 g/ha, PREEMERGENCE): 7
Fc1cc(Cl)c(OCc2ccccc2)cc1-c1nn2c(c1Cl)CCCC2 [Compound 22]	3	4	3	9	3	5	2	5	0	0	0	0	0	0	2	2	0	0	4	7	Plant response rating, Rape (rape; PREEMERGENCE, Rate 50 g/ha): 0; Plant response rating, Rape (rape; Rate 200 g/ha, PREEMERGENCE): 1; Plant response rating (0 to 10 scale), Crabgrass (crabgrass; POSTEMERGENCE, Rate 50 g/ha): 3; Plant response rating, Crabgrass (crabgrass; POSTEMERGENCE, Rate 200 g/ha): 2; Plant response rating, Crabgrass (crabgrass; PREEMERGENCE, Rate 50 g/ha): 2; Plant response rating, Crabgrass (crabgrass; Rate 200 g/ha, PREEMERGENCE): 4; Plant response rating (0 to 10 scale), Blackgrass (blackgrass; POSTEMERGENCE, Rate 50 g/ha): 3; Plant response rating, Blackgrass (blackgrass; POSTEMERGENCE, Rate 200 g/ha): 3; Plant response rating, Blackgrass (blackgrass; PREEMERGENCE, Rate 50 g/ha): 0; Plant response rating, Blackgrass (blackgrass; Rate 200 g/ha, PREEMERGENCE): 5
CCS(=O)(=O)Oc1cc(-c2nn3c(c2Cl)CCCC3)c(F)cc1Cl [Compound 25]	3	4	2	7	3	5	2	6	0	0	0	0	0	0	2	8	0	0	10	10	Plant response rating, Rape (rape; PREEMERGENCE, Rate 50 g/ha): 0; Plant response rating, Rape (rape; Rate 200 g/ha, PREEMERGENCE): 9; Plant response rating (0 to 10 scale), Crabgrass (crabgrass; POSTEMERGENCE, Rate 50 g/ha): 3; Plant response rating, Crabgrass (crabgrass; POSTEMERGENCE, Rate 200 g/ha): 2; Plant response rating, Crabgrass (crabgrass; PREEMERGENCE, Rate 50 g/ha): 5; Plant response rating, Crabgrass (crabgrass; Rate 200 g/ha, PREEMERGENCE): 7; Plant response rating (0 to 10 scale), Blackgrass (blackgrass; POSTEMERGENCE, Rate 50 g/ha): 2; Plant response rating, Blackgrass (blackgrass; POSTEMERGENCE, Rate 200 g/ha): 2; Plant response rating, Blackgrass (blackgrass; PREEMERGENCE, Rate 50 g/ha): 0; Plant response rating, Blackgrass (blackgrass; Rate 200 g/ha, PREEMERGENCE): 3
CC(C)Oc1cc(-c2nn3c(c2Cl)CCCC3)c(F)cc1Cl [Compound 21]	4	7	5	9	6	9	2	7	0	0	20	40	0	0	1	3	0	0	6	10	Plant response rating, Rape (rape; PREEMERGENCE, Rate 50 g/ha): 3; Plant response rating, Rape (rape; Rate 200 g/ha, PREEMERGENCE): 8; Plant response rating (0 to 10 scale), Crabgrass (crabgrass; POSTEMERGENCE, Rate 50 g/ha): 2; Plant response rating, Crabgrass (crabgrass; POSTEMERGENCE, Rate 200 g/ha): 6; Plant response rating, Crabgrass (crabgrass; PREEMERGENCE, Rate 50 g/ha): 2; Plant response rating, Crabgrass (crabgrass; Rate 200 g/ha, PREEMERGENCE): 8; Plant response rating (0 to 10 scale), Blackgrass (blackgrass; POSTEMERGENCE, Rate 50 g/ha): 3; Plant response rating, Blackgrass (blackgrass; POSTEMERGENCE, Rate 200 g/ha): 5; Plant response rating, Blackgrass (blackgrass; PREEMERGENCE, Rate 50 g/ha): 6; Plant response rating, Blackgrass (blackgrass; Rate 200 g/ha, PREEMERGENCE): 7
